Experimental data taken from patent publication US9145375B2, “Quinazolinone compounds” (PRANA BIOTECHNOLOGY LIMITED, priority 2008, dated 2015).
Like-named read-outs stand apart in the source and are kept apart here. Blank lines part the entries; values can stand above or below the compound they belong to.

Legend:
[1] = PK Studies in the Rat; type: in vivo; conditions: for Cmax / Tmax / half-life / AUC(0-t): plasma; for AUC(0-t): read-out: AUC0-24 h (converted)
Description: Assay 5. Pharmacokinetic Profile
The pharmacokinetic profile of test compounds is determined by the following assay: • Intravenous infusion of test compound; 2 mg/Kg in a suitable vehicle is […]; […] up to 24 hours. • Plasma concentrations of test compound are determined by suitable analytical method.
(§1) [formula] [formula] [formula] • CLtotal=total plasma clearance after IV administration • Vdβ=volume of distribution during the elimination phase after IV administration • BA=oral bioavailability • AUCIV=area under the plasma concentration versus time profile from time zero to infinity after IV administration • AUCoral=area under the plasma concentration versus time profile from time zero to infinity after oral administration • β=terminal elimination rate constant after IV administration Assay 6. Blood Brain Barrier Penetration

[2] = target: T1, CYP2C9 (Homo sapiens, UniProt P11712); assay: CYP450 inhibition, specific substrate approach in human liver microsomes: CYP2C9; type: in vitro ADME
T1 construct: using a specific substrate approach in human liver microsomes; from tissue; host or cells: human liver microsomes
Description: (§2) CYP450 Isoform Inhibition Using a Specific Substrate Approach
(§3) The present study is a “Tier 2” screen to assess potential enzyme inhibition at a test compound concentration of 20 μM using a specific substrate approach in human liver microsomes.
(§4) The substrate specific enzyme inhibition study relies on the formation of a metabolite that is mediated by a specific CYP450 isoform using human liver microsomes. In the current study, the following reactions were monitored to assess interactions with specific CYP450 isoforms. A known inhibitor of each isoform was included in each assay as a positive control. The following IC50 values have been reported in the literature using equivalent assay conditions for each CYP450 isoform:
(§5) The reaction was initiated by the addition of an NADPH-regenerating system and was quenched by the addition of acetonitrile prior to determining the concentration (and apparent rate of formation) of the specific metabolite by LC/MS.
(§6) The IC50 was deemed to be the concentration at which there was a 50% reduction in the amount of metabolite formed, relative to the maximal extent of formation.

[3] = Blood Brain Barrier Penetration (brain to plasma ratio); type: in vivo; conditions: male, Swiss Outbred, mouse, brain and plasma; for Kp at 5 min / Kp at 1 h: 150 μg/mouse, IV, read-out: Brain to Plasma Ratio (IV) (B:P); for Kp at 1 h: at 60 min; for Kp at 0.5 h / Kp at 4 h: Oral dosing, read-out: Brain to Plasma Ratio (B:P); for Kp at 0.5 h: at 30 min; for Kp at 4 h: at 240 min
Description: as §1
A bolus injection of each of the test compound (50 μL of a 3 mg/mL aqueous solution containing 40% propylene glycol and 10% ethanol) was administered by tail vein injection to male Swiss Outbred mice (5-7 weeks of age). Alternatively, test compound was orally administered to mice according to standard procedures known to the skilled person.
[…] Mice were anaesthetised approximately 3-4 min prior to blood and brain harvest with an intraperitoneal injection of ketamine and xylazine (133 mg/kg and 10 mg/kg, respectively). The whole brain was placed into pre-weighed polypropylene vials and stored at −20° C. until analysis. On the day of analysis, the whole brain was homogenised in 3 parts of water (on ice to reduce the potential for ex vivo brain degradation) and an aliquot of the brain homogenate and plasma was analysed for compound concentration by LCMS. Standards were prepared by spiking blank brain homogenate and both samples and standards were processed by adding acetonitrile to the tissue homogenate, centrifuging and injecting an aliquot of the supernatant onto the LCMS.
To ensure complete recovery of compound from the brain, brain homogenate was spiked with compound (in 50% acetonitrile:50% water) to a nominal concentration of 500 ng/mL. The concentration of compound in the supernatant was then determined by LCMS and compared to the supernatant concentration when compound was added following precipitation with acetonitrile.
[formula] [formula] [formula] [formula] • Cbrain=concentration of compound in brain parenchyma (ng/g) • Cbrain homogenate=concentration of compound in brain homogenate (ng/g) • Cbrain vasculature=concentration of compound in brain vasculature (ng/g) • CPlasma=concentration of compound in plasma (ng/mL) • VP=brain plasma volume (26 μL/g for male Swiss Outbred mice) • B:P=brain-to-plasma ratio • Papp=apparent permeability coefficient of compound permeating the blood-brain barrier • ∫0^tcplasmadt=concentration of compound in plasma from time zero to 5 min post-dose (equivalent to the 5 min post-dose plasma concentration, assuming no back diffusion from brain to plasma within this time period) • A=surface area of capillaries forming the blood-brain barrier (240 cm^2/g brain weight for mouse) Assay 7 In Vitro Metabolism in Human Liver Microsomes

[4] = target: T2, CYP2C19 (Homo sapiens, UniProt P33261); assay: CYP450 inhibition, specific substrate approach in human liver microsomes: CYP2C19; type: in vitro ADME
T2 construct: using a specific substrate approach in human liver microsomes; from tissue; host or cells: human liver microsomes
Description: as §2, §3, §4, §5, §6

T2 sequence (P33261 whole entry): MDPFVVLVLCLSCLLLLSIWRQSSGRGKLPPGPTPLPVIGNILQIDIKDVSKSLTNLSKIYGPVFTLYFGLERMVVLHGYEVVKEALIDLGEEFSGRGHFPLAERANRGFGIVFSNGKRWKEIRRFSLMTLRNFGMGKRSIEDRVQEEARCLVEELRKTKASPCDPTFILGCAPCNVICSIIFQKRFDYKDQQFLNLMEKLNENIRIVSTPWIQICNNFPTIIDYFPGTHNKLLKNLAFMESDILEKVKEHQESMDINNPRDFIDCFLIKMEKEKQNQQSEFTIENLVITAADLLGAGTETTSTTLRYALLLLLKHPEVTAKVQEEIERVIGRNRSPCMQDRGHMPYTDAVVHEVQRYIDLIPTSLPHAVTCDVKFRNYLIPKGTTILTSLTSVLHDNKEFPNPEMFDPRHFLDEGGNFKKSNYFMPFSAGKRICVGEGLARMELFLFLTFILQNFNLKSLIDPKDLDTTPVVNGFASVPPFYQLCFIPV
T1 sequence (P11712 whole entry): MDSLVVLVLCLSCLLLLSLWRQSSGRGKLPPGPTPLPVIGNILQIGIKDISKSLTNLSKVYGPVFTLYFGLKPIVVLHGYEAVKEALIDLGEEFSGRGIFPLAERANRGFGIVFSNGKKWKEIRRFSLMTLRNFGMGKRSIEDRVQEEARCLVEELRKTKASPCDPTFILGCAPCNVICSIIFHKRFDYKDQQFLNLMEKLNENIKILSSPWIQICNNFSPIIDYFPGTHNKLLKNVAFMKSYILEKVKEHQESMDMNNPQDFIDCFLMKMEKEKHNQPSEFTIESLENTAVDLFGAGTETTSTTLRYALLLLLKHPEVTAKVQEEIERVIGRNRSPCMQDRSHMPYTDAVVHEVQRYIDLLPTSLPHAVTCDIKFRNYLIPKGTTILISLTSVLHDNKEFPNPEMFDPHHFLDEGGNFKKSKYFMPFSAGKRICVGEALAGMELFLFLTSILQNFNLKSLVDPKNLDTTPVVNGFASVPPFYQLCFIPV

Structure (SMILES): CNCc1nc2c(O)c(Cl)cc(Cl)c2c(=O)n1C [Compound F4161]
Cmax ([1]; route and dose not given): 6.7 µM | Tmax ([1]; route and dose not given): 0.25 h | half-life ([1]; route and dose not given): 6.7 h | AUC(0-t) ([1]; route and dose not given): 14.1 µM·h | % dose in urine ([1]; route and dose not given): urine = 0.1% | l24 ([1]; route and dose not given): l24 = 0.045-0.15 μM

Structure (SMILES): CCN(CC)Cc1nc2c(O)c(Cl)cc(Cl)c2c(=O)n1CC1CC1 [Compound F4385]
% dose in urine ([1]; oral 20 mg/Kg): 0.05% dose | l24 ([1]; oral 20 mg/Kg): l24 = 0.5-1.5 u uM | Cmax ([1]; oral 20 mg/Kg): 7.3 µM | Tmax ([1]; oral 20 mg/Kg): 0.5 h | half-life ([1]; oral 20 mg/Kg): 14.7 h | AUC(0-t) ([1]; oral 20 mg/Kg): 52.1 µM·h | IC50 [2]: > 30 µM | Kp at 0.5 h [3]: 0.31 | Kp at 4 h [3]: 0.42 | IC50 [4]: > 30 µM

Structure (SMILES): Br.CCn1c(CNC)nc2c(O)c(Cl)cc(Cl)c2c1=O [Compound F4486]
Kp at 0.5 h [3]: 0.23 | Kp at 4 h [3]: 0.22

Structure (SMILES): CCNCc1nc2c(O)c(Cl)cc(Cl)c2c(=O)n1CC [Compound F4495]
% dose in urine ([1]; oral 20 mg/Kg): 0.18% dose | l24 ([1]; oral 20 mg/Kg): l24 = 0.05-0.3 uM | Cmax ([1]; oral 20 mg/Kg): 56.7 µM | Tmax ([1]; oral 20 mg/Kg): 0.5 h | half-life ([1]; oral 20 mg/Kg): 4.1 h | AUC(0-t) ([1]; oral 20 mg/Kg): 87 µM·h | IC50 [2]: > 30 µM | Kp at 0.5 h [3]: 0.65 | Kp at 4 h [3]: 0.64 | IC50 [4]: > 30 µM

Structure (SMILES): Br.CCNCc1nc2c(O)c(Cl)cc(Cl)c2c(=O)n1C [Compound F4496]
% dose in urine ([1]; oral 20 mg/Kg): 0.19% dose | l24 ([1]; oral 20 mg/Kg): l24= 0.02-0.1 uM | Cmax ([1]; oral 20 mg/Kg): 7.61 µM | Tmax ([1]; oral 20 mg/Kg): 0.75 h | half-life ([1]; oral 20 mg/Kg): 6.1 h | AUC(0-t) ([1]; oral 20 mg/Kg): 17.8 µM·h | IC50 [2]: > 30 µM | Kp at 0.5 h [3]: 1.42 | Kp at 4 h [3]: 1.97 | IC50 [4]: > 30 µM

Other lines, results leading:

l24 ([1]; oral 30 mg/Kg): l24 = 0.25-0.5 uM | half-life ([1]; oral 30 mg/Kg): 4.9 h | IC50 [2]: > 30 µM | Kp at 5 min [3]: 3.46 | Kp at 1 h [3]: 2.02 | IC50 [4]: > 30 µM
Structure (SMILES): CN(C)Cc1nc2c(O)c(Cl)cc(Cl)c2c(=O)n1CC1CC1 [Compound F4267]

% dose in urine ([1]; oral 30 mg/Kg): 0.1% dose | Rel. Exposure ([1]; oral 30 mg/Kg): 51.9% | l24 ([1]; oral 30 mg/Kg): l24 = 0.02-0.05 uM | Cmax ([1]; oral 30 mg/Kg): 10 µM | Tmax ([1]; oral 30 mg/Kg): 0.333 h | half-life ([1]; oral 30 mg/Kg): 4.3 h | IC50 [2]: > 20 µM | Kp at 5 min [3]: 2.96 | Kp at 1 h [3]: 2.63 | IC50 [4]: > 20 µM
Structure (SMILES): CCn1c(CN(C)C)nc2c(O)c(Cl)cc(Cl)c2c1=O.Cl [Compound F4268]

% dose in urine ([1]; oral 20 mg/Kg): 0.1% dose | l24 ([1]; oral 20 mg/Kg): l24 = 0.01-0.03 uM | Cmax ([1]; oral 20 mg/Kg): 3.3 µM | Tmax ([1]; oral 20 mg/Kg): 0.375 h | half-life ([1]; oral 20 mg/Kg): 5.6 h | AUC(0-t) ([1]; oral 20 mg/Kg): 5.5 µM·h | IC50 [2]: > 30 µM | Kp at 5 min [3]: 2.96 | Kp at 1 h [3]: 2.12 | IC50 [4]: > 30 µM
Structure (SMILES): CN(C)Cc1nc2c(O)c(Cl)cc(Cl)c2c(=O)n1C [Compound F4269, 5,7-Dichloro-2-(dimethylamino)methyl-8-hydroxy-3-methylquinazolin-4(3H)-one]

Kp at 5 min [3]: 0.65 | Kp at 1 h [3]: 0.29
Structure (SMILES): C#CCN(C)Cc1nc2c(O)c(Cl)cc(Cl)c2c(=O)n1CC1CC1 [Compound F4387]
